The values that follow come from article PMC7900799, “Synthesis, antibiotic structure–activity relationships, and cellulose dissolution studies of new room-temperature ionic liquids derived from lignin” (Biotechnology for Biofuels, 2021).

One data set concerns E. coli strain 1A1. Kind of data set: Broth dilution assay (antibiotic assay), growth at 600 nm after 24 h. Format: cell-based. As for the experimental part:
(§1) To determine if the antibacterial activity of 5 was due to pH effects, an additional broth dilution assay was performed using sodium hydroxide as a positive control.
E. coli strain 1A1 [43] was obtained from the microbial strain repository at the Joint Bioenergy Institute at Lawrence Berkeley National Laboratory. A 10 mL culture in Luria Broth (LB) media was grown for 18 h at 37 °C with shaking at 200 rpm. The culture was then diluted into LB media to an absorbance of 0.05 at 600 nm, and added into the wells of a 96-well plate (first row = 190 µL, all other wells = 100 µL/well). Approximately 700 mg of IL was dissolved into 1 mL of methanol, and 10 µL of each IL solution was added to first row wells of the plate. A twofold serial dilution was performed down the plate by mixing and transferring 100 µL using a multi-channel pipette. To maintain isochoric conditions, 100 µL was discarded from bottommost wells. The plate was then incubated at 37 °C with shaking at 150 rpm. After 24 h incubation, E. coli growth was quantified at 600 nm using an Epoch Microplate Spectrophotometer (Gen5 software). […] All experiments were repeated 3–7 times and error bars in Fig. 5 represent standard deviation. Statistical F-test was performed to determine the appropriate t-test (i.e., equal or unequal variance) to analyze significant difference between IC50 data.

For the next data set, the system named is Daphnia magna. Nature of the data set: 48-h acute toxicity study on D. magna. Format: in vivo. As to conditions: for IC50: Daphnia magna, 48 h, read-out: IC50 against D. magna. As for the experimental part: Procedures for cultivating and performing acute toxicity assays with D. magna generally followed the US EPA protocol. Daphnia magna was cultured from stocks supplied by Aquatic Bio Systems Inc. (Fort Collins, CO). The organisms were cultured in 900-mL jars filled with moderately hard water from the recipe: 0.473 g CaSO4, 0.959 g NaHCO3, 1.223 g MgSO4·7H2O, and 0.039 g KCl per 10 L of deionized water. 2 mL of algae (Selenastrum capriconutum) containing 3.0 × 10^7 cells/mL were fed to D. magna on both Tuesdays and Thursdays with water changes as well as feedings on Saturdays. All glass jars were placed in a Thermo Scientific Precision incubator (Fischer Scientific, Hampton, NH) at a holding temperature of 20 °C and on a 12 h:12 h light:dark cycle. This procedure was conducted approximately a month prior to the beginning of the project. To prepare D. magna for use in acute experiments, three hundred adult daphnids were separated into five 1-L beakers with 60 daphnids each. These daphnids were used a week later in the experiment. All daphnid cultures followed the same protocol for feeding and water changes as mentioned previously.
A 48-h acute toxicity study was carried out to examine the toxic effects of 11 and 12 on D. magna, Glass jars were filled with moderately hard water and spiked with the appropriate concentration of IL from stock solution to a total volume of 50 mL. For each IL, 5 different concentrations were studied. Control jars were set up with only 50 mL of moderately hard water. Four replicates were used for each concentration and each replicate had four daphnids. The daphnids were placed into glass jars for each concentration of ILs. All glass jars were placed in a Thermo Scientific Precision incubator (Fischer Scientific, Hampton, NH) at a holding temperature of 20 °C and on a 12 h:12 h light:dark cycle. Mortality in each jar was recorded every 24 h.

A short description of data set [1]: pH of LB media at the IC50 concentration. Format: physicochemical. As to conditions: at IC50 against E. coli. Here is the method:
as §1

The mark [2] stands for this setting: Escherichia coli, 1A1, 24 h, E. coli strain 1A1, LB media, 24 h, 37 °C, read-out: IC50 (concentration of IL required to decrease bacterial growth by 50%).
[3] abbreviates: E. coli strain 1A1, LB media, 24 h, 37 °C, read-out: IC50 (concentration of IL required to decrease bacterial growth by 50%).

Like-named read-outs stand apart in the source and are kept apart here.

For `COc1ccc(C[N+](C)(C)C)cc1OC` [Compound 8], the IC50 in the data set on E. coli strain 1A1 (setting [2]) came to 48.2 ± 3.3 mM.

For `COc1ccc(C[N+](C)(C)C)cc1OC` [Compound 11], the “fold reduction of toxicity of the methanesulfonate compared with the acetate anion (8)” value in the data set with E. coli strain 1A1 (E. coli, vanillin-derived N,N,N-trimethyl cation) came to 1.6 fold. In addition, the IC50 in the data set with E. coli strain 1A1 (Escherichia coli, 1A1, 24 h, read-out: IC50 (concentration of IL required to decrease bacterial growth by 50%)) amounted to 78.7 ± 2.5 mM; in the data set on Daphnia magna, 319 ± 66 µM. In the data set on Daphnia magna (0.319 mM vs 78.7 mM), the “fold by which IC50 against D. magna is lower than IC50 against E. coli” value was “approximately 250 fold”.

Consider `COc1cc(C[N+](C)(C)C)cc(OC)c1OC` [Compound 7], for which, in the data set on E. coli strain 1A1 (setting [2]), the IC50 came to 22.2 ± 0.8 mM.

With `CC[N+](C)(CC)Cc1ccc(OC)c(OC)c1` [Compound 9, N-(3,4-Dimethoxybenzyl)-N-ethyl-N-methylethanaminium acetate], in the data set on E. coli strain 1A1 (setting [2]), the IC50 turned out to be 19.6 ± 0.4 mM.

Turning to `CCCC[N+](CCCC)(CCCC)CCCC` [Compound 3, tetrabutylammonium bromide, reference compound], in the data set with E. coli strain 1A1 (read-out: IC50 (concentration of IL required to decrease bacterial growth by 50%), E. coli strain 1A1, LB media, 24 h, 37 °C), the IC50 was found to be 10 ± 1.3 mM.

For `C[N+](C)(C)Cc1ccccc1` [Compound 4, Benzyltrimethylammonium acetate], the IC50 in the data set on E. coli strain 1A1 (setting [3]) amounted to 47.8 ± 0.6 mM.

For `COc1ccc(C[N+](C)(C)C)cc1` [Compound 6], the IC50 in the data set on E. coli strain 1A1 (setting [2]) was found to be 11.6 ± 1.7 mM.

`CCCC[N+](CCCC)(CCCC)CCCC` [Compound 2, Tetrabutylammonium acetate]: the IC50 in the data set with E. coli strain 1A1 (Escherichia coli, 1A1, 24 h, read-out: IC50 (concentration of IL required to decrease bacterial growth by 50%), E. coli strain 1A1, LB media, 24 h, 37 °C) stood at 13.2 ± 2.9 mM.

Take `CCC[N+](C)(CCC)Cc1ccc(OC)c(OC)c1` [Compound 10, N-(3,4-Dimethoxybenzyl)-N-methyl-N-propylpropan-1-ammonium acetate]: the IC50 in the data set with E. coli strain 1A1 (setting [2]) worked out at 17.7 ± 0.9 mM.

Consider `C[N+](C)(C)Cc1ccccc1` [Compound 5, benzyltrimethylammonium hydroxide, reference compound], for which the IC50 in the data set on E. coli strain 1A1 (setting [3]) was found to be 10.4 ± 0.3 mM. Also, in data set [1], the “pH of LB media at the IC50 concentration” value came to 8.5.

For `COc1cc(C[N+](C)(C)C)cc(OC)c1OC` [Compound 12], the “fold more toxic to D. magna than vanillin-derived IL 11” value in the data set with Daphnia magna (48-h acute toxicity) was 2.6 fold. Besides, the IC50 with Daphnia magna is 123 ± 12 µM.

For `[Na+].[OH-]` [NaOH, sodium hydroxide, reference compound], the IC50 with E. coli strain 1A1 (setting [3]) is 25.5 mM. In data set [1], the “pH of LB media at the IC50 concentration” value was found to be 9.4.
